According to ChEMBL document CHEMBL2040823, “A novel class of small-molecule caspase-3 inhibitors prepared by multicomponent reactions” (Eur J Med Chem, 2012):

system: not listed separately; experiment: Octanol-water partition coefficient, log P of the compound by Shake-flask method; assay type: physicochemical

| Compound | logP |
| --- | --- |
| CCOC(=O)C1=C(Nc2ccc(Br)cc2)C(=O)N(C2CCCCC2)C1c1ccccc1 (centres undefined) | 2.25 |
| CCOC(=O)C1=C(Nc2ccc(Br)cc2)C(=O)N(c2ccc(Br)cc2)C1 | 1.75 |
| CCOC(=O)C1=C(Nc2cccc3ccccc23)C(=O)N(C2CCCCC2)C1c1ccccc1 (centres undefined) | 2 |
| CCOC(=O)C1=C(NC2CCCCC2)C(=O)N(c2ccc(Br)cc2)C1 | 1.8 |

molecular target: T1, Caspase-3 (Homo sapiens, UniProt P42574); experiment: Inhibition of human recombinant caspase-3 catalytic domain using Ac-DEVD-pNA as substrate preincubated for 30 mins before substrate addition measured after 3 mins
T1 sequence (P42574 whole entry): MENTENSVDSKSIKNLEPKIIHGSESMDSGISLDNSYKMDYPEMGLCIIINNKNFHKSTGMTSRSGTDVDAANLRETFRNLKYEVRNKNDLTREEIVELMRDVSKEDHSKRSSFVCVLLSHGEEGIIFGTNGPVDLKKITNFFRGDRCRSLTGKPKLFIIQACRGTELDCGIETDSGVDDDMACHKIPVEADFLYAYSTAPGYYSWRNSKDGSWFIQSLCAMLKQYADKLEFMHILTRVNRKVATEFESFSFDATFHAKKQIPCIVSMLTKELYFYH

| Compound | IC50 [µM] |
| --- | --- |
| CCCN1C(=O)C(Nc2ccc(Br)cc2)=C(C(=O)OCC)C1c1ccccc1 (centres undefined) | > 45 |
| CCOC(=O)C1=C(Nc2ccccc2)C(=O)N(c2ccccc2)C1 | > 45 |
| CCCNC1=C(C(=O)OC)CN(c2ccccc2)C1=O | > 45 |
| CCOC(=O)C1=C(Nc2ccc(F)cc2)C(=O)N(c2ccc(F)cc2)C1 | > 45 |
| CCOC(=O)C1=C(NC2CCCCC2)C(=O)N(C2CCCCC2)C1 | > 45 |
